# Assay results reported in ChEMBL document CHEMBL2321873, “1-(4-Phenylpiperazin-1-yl)-2-(1H-pyrazol-1-yl)ethanones as novel CCR1 antagonists” (Bioorg Med Chem Lett, 2013).
# Activity calls are given as the source filed them. The calls are words filed in the database; no cut-off is given here.
# Columns and labels:
# [1] = biological target: C-X-C chemokine receptor type 6 (Homo sapiens) (UniProt O00574); experiment: Antagonist activity at CXCR6 (unknown origin) assessed as inhibition of chemotaxis at 10 uM
# Chain of C-X-C chemokine receptor type 6 (Homo sapiens) (O00574 whole entry, looked up): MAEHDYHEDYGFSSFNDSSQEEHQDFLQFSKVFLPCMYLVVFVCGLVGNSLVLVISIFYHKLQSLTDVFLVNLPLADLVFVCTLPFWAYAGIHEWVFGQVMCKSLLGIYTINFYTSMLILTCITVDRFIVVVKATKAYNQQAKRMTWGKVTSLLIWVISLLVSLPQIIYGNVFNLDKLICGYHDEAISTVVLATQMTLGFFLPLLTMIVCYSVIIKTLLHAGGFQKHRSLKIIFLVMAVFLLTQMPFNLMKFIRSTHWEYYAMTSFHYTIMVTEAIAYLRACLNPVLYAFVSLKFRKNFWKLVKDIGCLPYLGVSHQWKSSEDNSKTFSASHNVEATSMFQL
# [2] = biological target: T1, G protein-coupled receptor (Human herpesvirus 8) (UniProt Q76SF8); experiment: Antagonist activity at HHV8 ORF74 assessed as inhibition of calcium flux at 10 uM; type: functional; conditions: Human gammaherpesvirus 8
# T1 sequence (whole entry): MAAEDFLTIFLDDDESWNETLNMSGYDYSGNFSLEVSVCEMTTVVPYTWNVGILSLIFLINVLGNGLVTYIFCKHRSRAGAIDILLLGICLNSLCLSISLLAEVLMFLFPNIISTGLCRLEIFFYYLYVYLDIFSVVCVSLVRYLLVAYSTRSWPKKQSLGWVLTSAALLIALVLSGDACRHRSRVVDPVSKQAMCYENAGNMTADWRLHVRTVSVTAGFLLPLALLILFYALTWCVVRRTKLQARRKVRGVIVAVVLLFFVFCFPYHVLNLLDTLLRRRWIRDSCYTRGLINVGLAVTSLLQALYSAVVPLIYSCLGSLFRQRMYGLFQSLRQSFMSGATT
# Cytomegalovirus [3] = experiment: Antagonist activity at CMV US28 assessed as inhibition of calcium flux at 10 uM
# [4] = biological target: T2, C-X-C chemokine receptor type 5 (Homo sapiens) (UniProt P32302); experiment: Antagonist activity at CXCR5 (unknown origin) assessed as inhibition of calcium flux at 10 uM; type: functional
# T2 sequence (whole entry): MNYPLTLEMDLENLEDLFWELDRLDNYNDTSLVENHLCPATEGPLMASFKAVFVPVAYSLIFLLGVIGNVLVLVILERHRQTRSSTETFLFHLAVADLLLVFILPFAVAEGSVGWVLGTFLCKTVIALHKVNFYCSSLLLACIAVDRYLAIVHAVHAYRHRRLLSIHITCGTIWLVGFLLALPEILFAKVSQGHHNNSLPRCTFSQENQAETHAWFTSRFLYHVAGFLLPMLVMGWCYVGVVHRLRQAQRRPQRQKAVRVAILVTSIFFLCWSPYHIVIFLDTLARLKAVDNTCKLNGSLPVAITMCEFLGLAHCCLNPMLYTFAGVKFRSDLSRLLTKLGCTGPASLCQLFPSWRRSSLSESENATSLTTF
# [5] = biological target: C-X-C chemokine receptor type 4 (Homo sapiens) (UniProt P61073); experiment: Antagonist activity at CXCR4 (unknown origin) assessed as inhibition of calcium flux at 10 uM; type: functional
# Chain of C-X-C chemokine receptor type 4 (Homo sapiens) (P61073 whole entry): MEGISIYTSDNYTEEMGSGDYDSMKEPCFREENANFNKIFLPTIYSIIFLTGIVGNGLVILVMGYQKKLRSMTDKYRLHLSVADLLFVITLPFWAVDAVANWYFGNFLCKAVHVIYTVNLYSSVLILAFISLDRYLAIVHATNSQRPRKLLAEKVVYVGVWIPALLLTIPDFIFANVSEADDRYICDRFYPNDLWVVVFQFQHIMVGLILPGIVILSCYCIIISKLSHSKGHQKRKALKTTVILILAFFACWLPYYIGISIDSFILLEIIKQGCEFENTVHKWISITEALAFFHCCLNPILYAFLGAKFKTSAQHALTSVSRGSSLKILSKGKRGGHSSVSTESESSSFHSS
# [6] = biological target: C-C chemokine receptor type 8 (Homo sapiens) (UniProt P51685); experiment: Antagonist activity at CCR8 (unknown origin) assessed as inhibition of calcium flux at 10 uM; type: functional
# Chain of C-C chemokine receptor type 8 (Homo sapiens) (P51685 whole entry): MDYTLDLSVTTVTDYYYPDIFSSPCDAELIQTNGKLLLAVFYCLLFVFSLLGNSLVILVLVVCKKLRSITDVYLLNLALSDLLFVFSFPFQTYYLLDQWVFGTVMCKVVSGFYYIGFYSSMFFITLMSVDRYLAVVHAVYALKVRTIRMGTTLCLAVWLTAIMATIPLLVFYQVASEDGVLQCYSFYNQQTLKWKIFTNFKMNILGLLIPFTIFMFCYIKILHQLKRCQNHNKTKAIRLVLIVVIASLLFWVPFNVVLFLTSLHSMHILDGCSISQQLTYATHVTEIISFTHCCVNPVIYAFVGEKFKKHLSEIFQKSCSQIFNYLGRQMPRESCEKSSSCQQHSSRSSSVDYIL
# [7] = biological target: T3, C-C chemokine receptor type 4 (Homo sapiens) (UniProt P51679); experiment: Antagonist activity at CCR4 (unknown origin) assessed as inhibition of calcium flux at 10 uM; type: functional
# T3 sequence (whole entry): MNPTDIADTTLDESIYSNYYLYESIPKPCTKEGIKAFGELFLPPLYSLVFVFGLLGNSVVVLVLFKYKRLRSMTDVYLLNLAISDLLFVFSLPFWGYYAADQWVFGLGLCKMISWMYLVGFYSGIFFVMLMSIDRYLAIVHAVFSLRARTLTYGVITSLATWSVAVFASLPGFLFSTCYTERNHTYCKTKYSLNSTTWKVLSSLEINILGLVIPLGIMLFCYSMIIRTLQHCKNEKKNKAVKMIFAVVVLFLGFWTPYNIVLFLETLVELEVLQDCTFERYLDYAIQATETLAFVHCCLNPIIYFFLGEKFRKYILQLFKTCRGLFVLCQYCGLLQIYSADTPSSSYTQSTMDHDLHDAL
# Cytomegalovirus [8] = experiment: Binding affinity to CMV US28 at 10 uM by radioligand displacement assay
# [9] = biological target: Atypical chemokine receptor 3 (Homo sapiens) (UniProt P25106); experiment: Binding affinity to CXCR7 (unknown origin) at 10 uM by radioligand displacement assay
# Chain of Atypical chemokine receptor 3 (Homo sapiens) (P25106 whole entry): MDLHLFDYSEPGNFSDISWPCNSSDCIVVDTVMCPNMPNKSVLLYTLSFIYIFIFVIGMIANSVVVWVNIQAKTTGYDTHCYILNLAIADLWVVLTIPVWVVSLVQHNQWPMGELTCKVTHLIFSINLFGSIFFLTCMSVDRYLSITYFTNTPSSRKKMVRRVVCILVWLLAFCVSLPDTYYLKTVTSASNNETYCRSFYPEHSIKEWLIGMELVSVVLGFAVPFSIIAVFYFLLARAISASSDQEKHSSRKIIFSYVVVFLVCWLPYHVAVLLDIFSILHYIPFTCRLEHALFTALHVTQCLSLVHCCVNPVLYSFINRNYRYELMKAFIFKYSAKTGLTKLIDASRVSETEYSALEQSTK
# [10] = biological target: T2, C-X-C chemokine receptor type 5 (Homo sapiens); experiment: Binding affinity to CXCR5 (unknown origin) at 10 uM by radioligand displacement assay
# [11] = biological target: T4, C-C chemokine receptor type 10 (Homo sapiens) (UniProt P46092); experiment: Binding affinity to CCR10 (unknown origin) at 10 uM by radioligand displacement assay
# T4 sequence (whole entry): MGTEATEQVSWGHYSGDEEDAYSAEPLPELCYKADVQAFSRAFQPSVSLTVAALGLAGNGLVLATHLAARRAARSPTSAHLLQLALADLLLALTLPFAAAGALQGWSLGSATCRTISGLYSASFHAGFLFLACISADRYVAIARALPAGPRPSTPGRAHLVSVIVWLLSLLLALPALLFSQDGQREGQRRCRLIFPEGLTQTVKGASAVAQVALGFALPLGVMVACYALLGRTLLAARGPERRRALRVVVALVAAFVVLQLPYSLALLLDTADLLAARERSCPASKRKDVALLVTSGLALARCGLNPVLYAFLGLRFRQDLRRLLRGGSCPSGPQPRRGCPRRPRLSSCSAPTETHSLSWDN
# [12] = biological target: T5, C-C chemokine receptor type 6 (Homo sapiens) (UniProt P51684); experiment: Binding affinity to CCR6 (unknown origin) at 10 uM by radioligand displacement assay
# T5 sequence (whole entry): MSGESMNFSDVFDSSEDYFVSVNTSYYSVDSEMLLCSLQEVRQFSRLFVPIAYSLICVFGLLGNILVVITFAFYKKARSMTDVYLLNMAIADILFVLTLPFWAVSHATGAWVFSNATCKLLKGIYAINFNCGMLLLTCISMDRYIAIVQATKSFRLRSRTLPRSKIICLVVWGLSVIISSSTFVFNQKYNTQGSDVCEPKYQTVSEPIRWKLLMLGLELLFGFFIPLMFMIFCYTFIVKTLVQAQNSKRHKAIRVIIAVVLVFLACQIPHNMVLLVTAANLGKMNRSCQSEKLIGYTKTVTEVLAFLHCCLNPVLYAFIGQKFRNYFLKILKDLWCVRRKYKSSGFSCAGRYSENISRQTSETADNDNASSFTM
# [13] = biological target: T3, C-C chemokine receptor type 4 (Homo sapiens); experiment: Binding affinity to CCR4 (unknown origin) at 10 uM by radioligand displacement assay
# Cytochrome P450 3A4 = Cytochrome P450 3A4 (Homo sapiens, UniProt P08684); experiment: Competitive inhibition of CYP3A4 (unknown origin); type: ADME
# Chain of Cytochrome P450 3A4 (P08684 whole entry): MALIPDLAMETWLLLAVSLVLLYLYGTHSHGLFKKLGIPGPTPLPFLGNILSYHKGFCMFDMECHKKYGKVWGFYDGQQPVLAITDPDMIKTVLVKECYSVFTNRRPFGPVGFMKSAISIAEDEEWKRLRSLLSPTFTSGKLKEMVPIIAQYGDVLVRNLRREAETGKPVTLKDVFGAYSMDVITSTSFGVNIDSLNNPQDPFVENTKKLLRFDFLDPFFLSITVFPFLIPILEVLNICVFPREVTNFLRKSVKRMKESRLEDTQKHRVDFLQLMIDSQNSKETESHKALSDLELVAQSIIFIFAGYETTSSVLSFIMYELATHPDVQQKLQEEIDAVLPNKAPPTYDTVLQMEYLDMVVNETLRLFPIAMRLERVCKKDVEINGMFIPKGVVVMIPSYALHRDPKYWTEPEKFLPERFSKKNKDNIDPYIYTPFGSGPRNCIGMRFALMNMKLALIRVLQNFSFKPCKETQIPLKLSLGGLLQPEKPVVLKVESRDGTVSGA
# Cytochrome P450 2C9 = Cytochrome P450 2C9 (Homo sapiens, UniProt P11712); experiment: Competitive inhibition of CYP2C9 (unknown origin); type: ADME
# Chain of Cytochrome P450 2C9 (P11712 whole entry): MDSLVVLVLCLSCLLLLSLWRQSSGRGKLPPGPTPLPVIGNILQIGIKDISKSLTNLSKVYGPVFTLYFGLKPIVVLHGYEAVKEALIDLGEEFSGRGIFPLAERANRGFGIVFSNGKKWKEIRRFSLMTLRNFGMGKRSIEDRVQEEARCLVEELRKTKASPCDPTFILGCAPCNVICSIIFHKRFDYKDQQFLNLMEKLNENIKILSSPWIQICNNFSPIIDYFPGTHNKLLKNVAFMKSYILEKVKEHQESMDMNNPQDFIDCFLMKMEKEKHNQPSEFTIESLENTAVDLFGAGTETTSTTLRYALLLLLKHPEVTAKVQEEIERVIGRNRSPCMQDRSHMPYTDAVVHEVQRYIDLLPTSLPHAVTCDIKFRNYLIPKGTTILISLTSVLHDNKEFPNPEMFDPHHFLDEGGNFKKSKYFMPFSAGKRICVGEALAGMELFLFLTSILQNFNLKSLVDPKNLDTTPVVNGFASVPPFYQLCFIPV
# [14] = biological target: C-C chemokine receptor type 1 (Mus musculus, UniProt P51675); experiment: Displacement of [125I]-CCL3/MIP-1alpha from CCR1 in mouse WEHI274.1 cells; type: cell-based
# Chain of C-C chemokine receptor type 1 (P51675 whole entry): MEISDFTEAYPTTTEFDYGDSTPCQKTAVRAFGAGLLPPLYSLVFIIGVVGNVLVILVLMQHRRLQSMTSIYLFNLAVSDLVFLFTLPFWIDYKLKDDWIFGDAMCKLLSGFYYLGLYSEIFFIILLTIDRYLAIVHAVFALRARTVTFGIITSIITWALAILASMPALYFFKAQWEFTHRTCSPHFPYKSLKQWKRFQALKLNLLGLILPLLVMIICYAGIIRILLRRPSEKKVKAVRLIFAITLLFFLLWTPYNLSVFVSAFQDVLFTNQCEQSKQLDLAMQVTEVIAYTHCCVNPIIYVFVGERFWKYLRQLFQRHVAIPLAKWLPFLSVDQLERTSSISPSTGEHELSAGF
# [15] = Half life in Beagle dog at 1 mg/kg, iv; type: ADME, organism-based, Canis lupus familiaris; parameters: dose 1 mg/kg, route intravenous; conditions: in vivo
# Rattus norvegicus [16] = experiment: Acute toxicity in Sprague-Dawley rat up to 1000 mg/kg; type: organism-based; parameters: dose 1000 mg/kg; conditions: in vivo
# Rattus norvegicus [17] = experiment: Toxicity in Sprague-Dawley rat assessed as effect on body weight at 70 to 360 mg/kg, po after 7 days; type: organism-based; parameters: dose 70-360 mg/kg, route oral; conditions: in vivo, 168 h
structure (smiles),measurement,setting,value
COc1cc(N2CCN(C(=O)Cn3nc(C(F)(F)F)c(Cl)c3C)CC2)ccc1Cl,inhibition,[1],inactive
same,inhibition,[2],inactive
same,inhibition,Cytomegalovirus [3],inactive
same,inhibition,[4],inactive
same,inhibition,[5],inactive
same,inhibition,[6],inactive
same,inhibition,[7],inactive
same,Activity,Cytomegalovirus [8],inactive
same,Activity,[9],inactive
same,Activity,[10],inactive
same,Activity,[11],inactive
same,Activity,[12],inactive
same,Activity,[13],inactive
same,IC50,Cytochrome P450 3A4,> 10 µM
same,IC50,Cytochrome P450 2C9,> 10 µM
same,IC50,[14],3 µM
same,half-life,[15],13.4 h
same,Activity,Rattus norvegicus [16],Non-toxic
same,Activity,Rattus norvegicus [17],Non-toxic
